# Earlier results in patent US6462026B1, “Bicyclic leucomycins” (Enanta Pharmaceuticals, Inc., priority 2001, dated 2002).
# Read-outs that look alike come from different tables or passages of the source.
# Experiments:
# [1] = metabolites isolated from urine and plasma of adults given oral josamycin
# [2] = parent compound rokitamycin
# Gram-negative bacteria = conditions: relative to leucomycin A5, josamycin and midecamycin
# [3] = monkeys; compared with other 3″-O-acyl derivatives of leucomycin A5
# [4] = dogs; compared with other 3″-O-acyl derivatives of leucomycin A5
molecule,measurement,setting,value
β-hydroxyisovaleryl josamycin,antimicrobial activity,[1],poor antimicrobial activity
CCC(=O)O[C@H]1[C@H](C)O[C@@H](O[C@H]2[C@H](N(C)C)[C@@H](O)[C@H](O[C@H]3[C@@H](CC=O)C[C@@H](C)[C@@H](O)/C=C/C=C/C[C@@H](C)OC(=O)C[C@@H](O)[C@@H]3OC)O[C@@H]2C)C[C@@]1(C)O [Leucomycin A7],in vitro potency relative to the parent compound,[2],one-half
COC1C(OC(C)=O)CC(=O)OC(C)CC=CC=CC(O)C(C)CC(CC=O)C1OC1OC(C)C(OC2CC(C)(O)C(O)C(C)O2)C(N(C)C)C1O (centres unmarked) [desisovaleryl josamycin],antimicrobial activity,[1],inactive
5-hydroxyjosamycin,antimicrobial activity,[1],poor antimicrobial activity
COC1C(O)CC(=O)OC(C)CC=CC=CC(=O)C(C)CC(CC=O)C1OC1OC(C)C(OC2CC(C)(O)C(OC(=O)CC(C)C)C(C)O2)C(N(C)C)C1O (centres unmarked) [Niddamycin],antibacterial activity in vitro,Mycoplasma spp.,good antibacterial activity
same,antibacterial activity in vitro,Gram-positive bacteria,good antibacterial activity
"CCCC(=O)O[C@H]1[C@H](C)O[C@@H](O[C@H]2[C@H](N(C)C)[C@@H](O)[C@H](O[C@H]3[C@@H](CC=O)C[C@@H](C)[C@@H](O)/C=C/C=C/C[C@@H](C)OC(=O)C[C@@H](O)[C@@H]3OC)O[C@@H]2C)C[C@@]1(C)OC(=O)CC [rokitamycin, 3″-O-propionyl leucomycin A5]",in vitro activity against Gram-negative bacteria,Gram-negative bacteria,twice as high
same,serum levels,[3],highest serum levels
same,serum levels,[4],highest serum levels
4″-debutyryl leucomycin A5 [Lecomycin V],in vitro potency relative to the parent compound,[2],one-tenth
demycarosyl josamycin,antimicrobial activity,[1],inactive
